Patent US9481670B2, “Triazine compounds” (Sphaera Pharma PTE. Ltd., priority 2011, dated 2016)

Target: T1, PI3K alpha (Homo sapiens, UniProt P42336)
T1 construct: purchased Millipore Upstate
Assay: P110 Alpha TR-FRET Assay (PI3K alpha kinase assay, HTRF Transcreener ADP Assay)
Format: biochemical
Settings: PI3K (WT)
Summary of the method: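 Enzyme (50 ng) and compound were preincubated 20 min in HEPES pH 7.5 buffer containing MgCl2, DTT and vanadate before 10 μM ATP plus 5 μM PIP2 substrate was added for 20 min. ADP produced was quantified by TR-FRET (ADP-d2, anti-ADP cryptate, 1 h).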

T1 sequence (P42336 whole entry): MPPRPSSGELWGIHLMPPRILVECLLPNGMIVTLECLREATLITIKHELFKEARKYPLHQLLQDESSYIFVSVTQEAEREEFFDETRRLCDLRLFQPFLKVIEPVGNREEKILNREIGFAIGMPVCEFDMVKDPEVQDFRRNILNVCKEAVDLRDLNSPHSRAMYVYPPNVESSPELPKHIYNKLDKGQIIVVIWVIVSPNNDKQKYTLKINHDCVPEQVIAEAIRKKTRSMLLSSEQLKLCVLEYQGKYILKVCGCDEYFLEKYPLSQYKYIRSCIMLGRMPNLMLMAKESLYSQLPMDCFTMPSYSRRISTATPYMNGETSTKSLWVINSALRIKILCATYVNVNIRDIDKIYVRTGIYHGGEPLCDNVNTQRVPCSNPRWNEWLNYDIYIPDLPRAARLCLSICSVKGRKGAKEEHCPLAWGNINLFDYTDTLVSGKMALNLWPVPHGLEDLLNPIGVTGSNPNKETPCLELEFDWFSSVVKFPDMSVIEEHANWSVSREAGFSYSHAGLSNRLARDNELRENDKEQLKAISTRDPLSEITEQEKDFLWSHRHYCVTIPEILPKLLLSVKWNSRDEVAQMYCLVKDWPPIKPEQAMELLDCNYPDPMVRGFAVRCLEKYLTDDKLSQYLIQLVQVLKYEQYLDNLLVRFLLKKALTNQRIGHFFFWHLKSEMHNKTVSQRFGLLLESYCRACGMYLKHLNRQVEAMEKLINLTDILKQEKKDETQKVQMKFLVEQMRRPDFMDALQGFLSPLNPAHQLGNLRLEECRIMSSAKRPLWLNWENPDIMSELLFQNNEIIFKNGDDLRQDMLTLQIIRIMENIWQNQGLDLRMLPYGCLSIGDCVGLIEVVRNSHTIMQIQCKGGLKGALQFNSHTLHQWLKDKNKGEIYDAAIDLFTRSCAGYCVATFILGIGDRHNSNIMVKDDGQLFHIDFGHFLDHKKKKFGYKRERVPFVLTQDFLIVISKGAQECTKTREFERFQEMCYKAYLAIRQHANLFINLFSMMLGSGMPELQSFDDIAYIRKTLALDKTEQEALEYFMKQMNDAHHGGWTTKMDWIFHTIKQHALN
T1 sequence (P27986 whole entry partner): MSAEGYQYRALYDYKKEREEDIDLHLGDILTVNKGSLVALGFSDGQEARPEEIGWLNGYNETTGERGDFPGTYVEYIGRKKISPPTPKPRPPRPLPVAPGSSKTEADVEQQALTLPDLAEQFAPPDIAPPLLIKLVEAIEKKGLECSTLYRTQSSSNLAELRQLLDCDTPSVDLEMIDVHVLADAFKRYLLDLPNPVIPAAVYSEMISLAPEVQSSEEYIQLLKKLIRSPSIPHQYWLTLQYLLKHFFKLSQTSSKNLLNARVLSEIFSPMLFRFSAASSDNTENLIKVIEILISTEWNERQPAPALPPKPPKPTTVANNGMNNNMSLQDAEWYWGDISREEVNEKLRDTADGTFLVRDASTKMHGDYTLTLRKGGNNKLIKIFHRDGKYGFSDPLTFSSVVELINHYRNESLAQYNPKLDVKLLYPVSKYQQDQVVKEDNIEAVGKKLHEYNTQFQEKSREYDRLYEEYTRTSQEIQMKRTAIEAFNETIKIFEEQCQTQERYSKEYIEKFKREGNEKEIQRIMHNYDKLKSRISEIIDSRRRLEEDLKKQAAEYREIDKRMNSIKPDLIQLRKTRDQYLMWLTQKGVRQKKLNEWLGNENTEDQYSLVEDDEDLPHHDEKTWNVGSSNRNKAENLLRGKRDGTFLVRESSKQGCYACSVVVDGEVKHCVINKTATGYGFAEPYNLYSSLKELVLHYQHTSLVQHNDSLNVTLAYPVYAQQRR

SMILES | IC50 [µM]
NC(=O)c1cccc(Nc2nc(-c3cccc4[nH]ncc34)nc(N3CCOCC3)n2)c1 [Compound 1201, 3-((4-(1H-indazol-4-yl)-6-morpholino-1,3,5-triazin-2-yl)amino)benzamide] | < 5
CNC(=O)[C@H]1CC[C@H](Oc2nc(-c3cccc4[nH]ncc34)nc(N3CCOCC3)n2)CC1 [Compound 1142, (1r,4r)-4-21-{[4-1-(1H-indazol-4-yl)-6-5-(morpholin-4-yl)-1,3,5-triazin-2-yl]oxy}-N-methylcyclohexane-1-carboxamide] | < 5
Cc1cc(-c2nc(Oc3ccc(C(=O)N(C)C)cc3)nc(N3CCOCC3)n2)cnc1N [Compound 1018, 4-14-{[4-1-(6-27-amino-5-26-methylpyridin-3-yl)-6-5-(morpholin-4-yl)-1,3,5-triazin-2-yl]oxy}-N,N-dimethylbenzamide] | < 5
CN(C)C(=O)CNc1nc(-c2cccc(O)c2)nc(N2CCOCC2)n1 [Compound 1167, 2-((4-(3-hydroxyphenyl)-6-morpholino-1,3,5-triazin-2-yl)amino)-N,N-dimethylacetamide] | < 5
NC(=O)CNc1nc(-c2cccc(O)c2)nc(N2CCOCC2)n1 [Compound 1181, 2-((4-(3-hydroxyphenyl)-6-morpholino-1,3,5-triazin-2-yl)amino)acetamide] | < 5
CC(Nc1nc(-c2cccc(O)c2)nc(N2CCOCC2)n1)C(=O)O (stereo not drawn) [Compound 1187, 2-((4-(3-hydroxyphenyl)-6-morpholino-1,3,5-triazin-2-yl)amino)propanoic acid] | < 5
CS(=O)(=O)N1CCC(COc2nc(-c3cnc(N)nc3)nc(N3CCOCC3)n2)CC1 [Compound 1005, 5-(4-((1-(methylsulfonyl)piperidin-4-yl)methoxy)-6-morpholino-1,3,5-triazin-2-yl)pyrimidin-2-amine] | < 5
CS(=O)(=O)N[C@H]1CC[C@H](Oc2nc(-c3cccc4[nH]ncc34)nc(N3CCOCC3)n2)CC1 [Compound 1095, N-[(1r,4r)-4-9-{[4-1-(1H-indazol-4-yl)-6-5-(morpholin-4-yl)-1,3,5-triazin-2-yl]oxy}cyclohexyl]methanesulfonamide] | < 5
CN(C)C(=O)CNc1nc(-c2cccc(C(N)=O)c2)nc(N2CCOCC2)n1 [Compound 1122, 3-12-(4-0-{[(dimethylcarbamoyl)methyl]amino}-6-4-(morpholin-4-yl)-1,3,5-triazin-2-yl)benzamide] | > 5
O=C(O)C(Cc1ccccc1)Nc1nc(-c2cccc(O)c2)nc(N2CCOCC2)n1 (stereo not drawn) [Compound 1118, 2-((4-(3-hydroxyphenyl)-6-morpholino-1,3,5-triazin-2-yl)amino)-3-phenylpropanoic acid] | < 5
CN(C)C(=O)N1CCCC(Oc2nc(-c3cccc4[nH]ncc34)nc(N3CCOCC3)n2)C1 (stereo not drawn) [Compound 1091, 3-22-{[4-1-(1H-indazol-4-yl)-6-5-(morpholin-4-yl)-1,3,5-triazin-2-yl]oxy}-N,N-dimethylpiperidine-1-carboxamide] | < 5
CN(C)C(=O)Cc1ccc(Oc2nc(-c3cnc(N)nc3)nc(N3CCOCC3)n2)cc1 [Compound 1006, 2-26-(4-20-{[4-3-(2-15-aminopyrimidin-5-yl)-6-5-(morpholin-4-yl)-1,3,5-triazin-2-yl]oxy}phenyl)-N,N-dimethylacetamide] | < 5
CN(C)C(=O)c1ccc(Oc2nc(-c3cccc4[nH]nnc34)nc(N3CCOCC3)n2)cc1 [Compound 1050, 4-14-{[4-1-(1H-1,2,3-benzotriazol-4-yl)-6-5-(morpholin-4-yl)-1,3,5-triazin-2-yl]oxy}-N,N-dimethylbenzamide] | > 5
CN(C)C(=O)c1ccc(Oc2nc(-c3cccc4[nH]ncc34)nc(N3CCNC(=O)C3)n2)cc1 [Compound 1059, 4-7-{[4-5-(1H-indazol-4-yl)-6-3-(3-29-oxopiperazin-1-yl)-1,3,5-triazin-2-yl]oxy}-N,N-dimethylbenzamide] | > 5
c1cc(-c2nc(NC3CCOCC3)nc(N3CCOCC3)n2)c2cn[nH]c2c1 [Compound 1225, 4-(1H-indazol-4-yl)-6-morpholino-N-(tetrahydro-2H-pyran-4-yl)-1,3,5-triazin-2-amine] | < 5
O=C(Nc1ccccn1)c1cccc(Nc2nc(-c3cccc4[nH]ncc34)nc(N3CCOCC3)n2)c1 [Compound 1129, 3-((4-(1H-indazol-4-yl)-6-morpholino-1,3,5-triazin-2-yl)amino)-N-(pyridin-2-yl)benzamide] | < 5
CN(C)C(=O)c1ccc(Oc2nc(-c3ccnc(N)c3)nc(N3CCOCC3)n2)cc1 [Compound 1036, 4-14-{[4-1-(2-26-aminopyridin-4-yl)-6-5-(morpholin-4-yl)-1,3,5-triazin-2-yl]oxy}-N,N-dimethylbenzamide] | < 5
CN(C)C(=O)c1ccc(COc2nc(-c3cccc4[nH]ncc34)nc(N3CCOCC3)n2)cc1 [Compound 1110, 4-23-({[4-1-(1H-indazol-4-yl)-6-5-(morpholin-4-yl)-1,3,5-triazin-2-yl]oxy}methyl)-N,N-dimethylbenzamide] | < 5
Nc1nc(-c2cccc3[nH]ncc23)nc(N2CCOCC2)n1 [Compound 1231, 4-2-(1H-indazol-4-yl)-6-0-(morpholin-4-yl)-1,3,5-triazin-2-amine] | > 5
c1cc(Nc2nc(-c3cccc4[nH]ncc34)nc(N3CCOCC3)n2)c2cn[nH]c2c1 [Compound 1205, N-(4-(1H-indazol-4-yl)-6-morpholino-1,3,5-triazin-2-yl)-1H-indazol-4-amine] | < 5
O=C1NCC2CN(c3nc(-c4cccc5[nH]ncc45)nc(N4CCOCC4)n3)CCC12 (stereo not drawn) [Compound 1196, 5-8-[4-1-(1H-indazol-4-yl)-6-5-(morpholin-4-yl)-1,3,5-triazin-2-yl]-octahydro-1H-pyrrolo[3,4-c]pyridin-1-one] | < 5
CCOc1ccc(NC(=O)C2CCN(c3nc(-c4cccc5[nH]ncc45)nc(N4CCOCC4)n3)C2)cc1 (stereo not drawn) [Compound 1174, N-(4-23-ethoxyphenyl)-1-12-[4-1-(1H-indazol-4-yl)-6-5-(morpholin-4-yl)-1,3,5-triazin-2-yl]pyrrolidine-3-carboxamide] | < 5
COc1cccc(-c2nc(N)nc(N3CCOCC3)n2)c1 [Compound 1128, 4-4-(3-13-methoxyphenyl)-6-0-(morpholin-4-yl)-1,3,5-triazin-2-amine] | > 5
CS(=O)(=O)N[C@@H]1CC[C@@H](Oc2nc(-c3cccc4[nH]ncc34)nc(N3CCOCC3)n2)C1 [Compound 1083, N-[(1R,3R)-3-14-{[4-1-(1H-indazol-4-yl)-6-5-(morpholin-4-yl)-1,3,5-triazin-2-yl]oxy}cyclopentyl]methanesulfonamide] | < 5
O=C(O)CNc1nc(-c2ccc(F)nc2)nc(N2CCOCC2)n1 [Compound 1179, 2-((4-(6-fluoropyridin-3-yl)-6-morpholino-1,3,5-triazin-2-yl)amino)acetic acid] | > 5

The next lines start with the values.

IC50 [µM] | SMILES
< 5 | c1cc(-c2nc(N3CCCNCC3)nc(N3CCOCC3)n2)c2cn[nH]c2c1 [Compound 1213, 4-12-[4-3-(1,4-diazepan-1-yl)-6-5-(morpholin-4-yl)-1,3,5-triazin-2-yl]-1H-indazole]
< 5 | c1cc(-c2nc(N3CCOCC3)nc(N3CCOCC3)n2)c2cn[nH]c2c1 [Compound 1233, 4-8-[4-3,6-5-bis(morpholin-4-yl)-1,3,5-triazin-2-yl]-1H-indazole]
< 5 | CNC(=O)C(=O)Nc1ccc(Oc2nc(-c3cccc4[nH]ncc34)nc(N3CCOCC3)n2)cc1 [Compound 1100, N-(4-14-{[4-1-(1H-indazol-4-yl)-6-5-(morpholin-4-yl)-1,3,5-triazin-2-yl]oxy}phenyl)-N′-methylethanediamide]
< 5 | CN(C)C(=O)N1CCC(Oc2nc(-c3ccc(N)nc3)nc(N3CCOCC3)n2)CC1 [Compound 1028, 4-20-{[4-1-(6-11-aminopyridin-3-yl)-6-5-(morpholin-4-yl)-1,3,5-triazin-2-yl]oxy}-N,N-dimethylpiperidine-1-carboxamide]
< 5 | Nc1ccc(-c2nc(Oc3ccc4c(c3)CCC(=O)N4)nc(N3CCOCC3)n2)cn1 [Compound 1010, 6-20-{[4-1-(6-11-ammopyridin-3-yl)-6-5-(morpholin-4-yl)-1,3,5-triazin-2-yl]oxy}-1,2,3,4-tetrahydroquinolin-2-one]
< 5 | CN(C)C(=O)c1ccc(Oc2nc(-c3ccc(F)nc3)nc(N3CCOCC3)n2)cc1 [Compound 1029, 4-14-{[4-1-(6-17-fluoropyridin-3-yl)-6-5-(morpholin-4-yl)-1,3,5-triazin-2-yl]oxy}-N,N-dimethylbenzamide]
< 5 | O=C(O)CCNc1nc(-c2cccc3[nH]ncc23)nc(N2CCOCC2)n1 [Compound 1227, 3-((4-(1H-indazol-4-yl)-6-morpholino-1,3,5-triazin-2-yl)amino)propanoic acid]
< 5 | Oc1ccc(-c2nc(N3CCNCC3)nc(N3CCOCC3)n2)cn1 [Compound 1105, 5-12-[4-5-(morpholin-4-yl)-6-3-(piperazin-1-yl)-1,3,5-triazin-2-yl]pyridin-2-ol]
> 5 | NC(=O)c1ccccc1Nc1nc(-c2cccc3[nH]ncc23)nc(N2CCOCC2)n1 [Compound 1198, 2-((4-(1H-indazol-4-yl)-6-morpholino-1,3,5-triazin-2-yl)amino)benzamide]
< 5 | CN(C)C(=O)c1ccc(Oc2nc(-c3cccc(O)c3)nc(N3CCOCC3)n2)cc1 [Compound 1030, 4-14-{[4-1-(3-21-hydroxyphenyl)-6-5-(morpholin-4-yl)-1,3,5-triazin-2-yl]oxy}-N,N-dimethylbenzamide]
< 5 | CS(=O)(=O)N1CCN(c2nc(-c3cccc4[nH]ncc34)nc(N3CCOCC3)n2)CC1 [Compound 1211, 4-7-[4-3-(4-16-methanesulfonylpiperazin-1-yl)-6-5-(morpholin-4-yl)-1,3,5-triazin-2-yl]-1H-indazole]
